Results: publication PMC4405831, “Mast cell regulation of Na-glutamine co-transporters B0AT1 in villus and SN2 in crypt cells during chronic intestinal inflammation” (BMC Gastroenterology, 2015)

Tested on: T1, B0AT1
T1 construct: gene SLC6A19; native full-length transporter in brush border membrane vesicles from ileal villus cells; not purified
Test: 3H-glutamine uptake into villus BBMV, rapid filtration, […] s
Format: biochemical, Oryctolagus cuniculus
Settings: labelled compound; Na-dependent uptake (100 mM NaCl minus choline), pH 7.5, voltage clamped; normal (control) rabbits

In the case of `NC(=O)CC[C@H](N)C(=O)O` [glutamine], the Km is reported as 24 ± 1.5 mM.
